Source: patent US20250362274A1, “SYSTEMS AND METHODS TO DETERMINE PARTITION COEFFICIENTS BETWEEN CRUDE OIL AND AN AQUEOUS PHASE” (Saudi Arabian Oil Company, priority 2024, published 2025)

Legend:
[1] = Partition coefficient between crude oil and aqueous phase (microfluidic mixer, functionalized glass fiber separation tube, HPLC UV-Vis); assay type: physicochemical; details: tracer at 100 ppm, after mixing with crude oil and separation
Procedure: In step 2700, the partition coefficient is calculated using the measurement from step 2600 and the reference points and calibration curve from step 2100. The partition coefficient of a substance “A” is defined as
where [A]org is the concentration of substance A in the organic phase, and [A]aq is the concentration of substance A in the water phase, with equal volumes of organic and aqueous phases at equilibrium. The detection system 1300 and the calibration curve from the step 2100 can provide [A]aq. [A]total can be obtained from the step 2200 and [A]org can be calculated as [A]org=[A]total−[A]aq.
A partition coefficient detection system was constructed using a teardrop microfluidic mixer (micronit), a functionalized glass fiber packed capillary tube oil/water phase separator, and a 1D HPLC UV-Vis detector (Agilent, 1290 Infinity HPLC system).
To prepare the functionalized glass fiber packed capillary tube oil/water phase separator, a hydrophobic fiber filtration material was prepared by chemically functionalizing surfaces of glass wool. […] The washed glass wool was immersed in 20 mL Piranha solution (3:1 mixture of concentrated sulfuric acid and 30% hydrogen peroxide) for 30 mins, then the treated glass wool was removed from the Piranha solution and rinsed with DI water until the pH value of the water used for rinsing was near neutral pH (pH=7±1), as monitored by a pH meter. […]

[2] = Hansch, C. et al. (1995); cited from earlier work

partitioning behavior between crude oil and aqueous phase (FIG. 4) [1]	Compound	partition coefficient (log P), value from the literature [2]
did show partitioning behavior	OCc1ccc(Cl)cc1 [4-CBA, 4-chlorobenzyl alcohol]	1.96
did not show partitioning behavior	O=C(O)c1ccccc1F [2-fluorobenzoic acid]	–
